US11124490B2, “Autotaxin inhibitors” (UNIVERSITY OF TENNESSEE RESEARCH FOUNDATION, priority 2016, dated 2021)
Values joined by “and” are separate entries in the source; they are usually repeats but may differ in a detail not shown here. Equal entries are not always repeated.

Columns and labels:
human recombinant ATX [1] = target: T1, human recombinant ATX (Homo sapiens (Human), UniProt Q13822); assay: ATX inhibition, hydrolysis of FRET substrate FS-3; type: biochemical; details: for IC50: 1 μM FS-3, 4 nM human recombinant ATX, 1 hour time point, read-out: IC50 (nM ± SD) vs FS-3
Protocol: (§1) ATX Generation: Human recombinant ATX was expressed as published previously, using Sf9 Spodoptera frugiperda ovary cells (Invitrogen, Carlsbad, Calif.).^13 Suspension cells were grown to a 1 liter quantity at a concentration of 1×10^6 cells/ml in Sf-900 III serum-free medium (Invitrogen) supplemented with 50 U/ml penicillin and 50 μg/ml streptomycin at 27° C. with agitation. Cells were then infected with high-titer baculovirus generated via Bac-to-Bac Baculovirus Expression System (Invitrogen) using the pCMV5 mammalian expression vector containing the C-terminal FLAG-tagged human ATX sequence (a generous gift from Dr. Junken Aoko, ohoku University, Aoba-ku, Sendai, Japan) subcloned into the pFastBacl transfer vector. […] Resultant ATX was then concentrated via centrifugation in Amicon Ultra 30,000 molecular weight cut off filter units (Millipore, Billerica, Mass.) and subsequent buffer exchange into storage buffer comprised of 50 mM Tris, pH 7.4 with 20% (v/v) ethylene glycol. Protein was held at −80° C. for long-term storage.
(§2) ATX Inhibition: ATX activity was assessed via hydrolysis of the synthetic, lipid-like FRET-based substrate FS-3 (Echelon Biosciences, Salt Lake City, Utah) or via hydrolysis of the nucleotide substrate p-nitrophenyl thymidine 5′-monophosphate (pNP-TMP) as described previously.^2 Reaction wells were loaded in 60 μl volumes in triplicate wells of half-area, black-wall 96-well plates in assay buffer consisting of 50 mM Tris, 140 mM NaCl, 5 mM KCl, 1 mM CaCl2, 1 mM MgCl2, […] BSA, pH 8.0. […] Fluorescence was read every 2 minutes for 1 hour at excitation/emission wavelengths of 485/528 nm for FS-3 hydrolysis or 405 nm absorbance for pNP-TMP hydrolysis using a FlexStation 3 microplate reader (Molecular Devices, Sunnyvale, Calif.). Data (relative fluorescence or absorbance) were then recorded as a mean value of the triplicates for each sample versus time. […] In the case of mechanism determination, the linear fluorescence data from time 10 minutes to 30 minutes were then transformed using a carboxyfluorescein standard curve to determine product concentration and plotted separately. Linear trend lines were inserted using Microsoft Excel, the slope of which represent the rates of reaction for each substrate concentration. This reaction rate data for each inhibitor concentration were then plotted against substrate (FS-3) concentration and simultaneously fitted via non-linear regression in the Michaelis-Menten equations for competitive, non-competitive, uncompetitive, and mixed-mode inhibition using GraphPad Prism version 5.0a. Mechanism of inhibition was determined by which curve fit had the best global fit (R^2 value).

human recombinant ATX [2] = target: T1, human recombinant ATX; assay: ATX inhibition, hydrolysis of nucleotide substrate pNP-TMP; type: biochemical; details: 1 mM pNP-TMP, 4 nM ATX, compound 0 to 1 μM
Protocol: as §1, §2

Structure (SMILES)	ATX inhibitory activity (in words) (human recombinant ATX [1])	IC50 (human recombinant ATX [1])	pNP-TMP Inhibition (human recombinant ATX [2])	fold IC50 improvement relative to screening hit 918013 (human recombinant ATX [1])	Mechanism (human recombinant ATX [1]; mechanism of inhibition, FS-3 0 to 10 μM, inhibitor 0, 0.5×IC50 or 2×IC50)
O=C(Nc1c(F)c(F)c(F)c(F)c1F)c1cc(S(=O)(=O)N2CCOCC2)c(Cl)cc1Cl [Compound 3c, 2,4-dichloro-5-(morpholinosulfonyl)-N-(perfluorophenyl)benzamide]	poorly active	1030 nM	None	–	–
O=C(Nc1cc(Cl)c(Cl)c(Cl)c1)c1cc(S(=O)(=O)N2CCOCC2)c(Cl)cc1Cl [Compound 3d, 2,4-dichloro-5-(morpholinosulfonyl)-N-(3,4,5-trichlorophenyl)benzamide]	poorly active	> 1000 nM	None	–	–
COc1cc(NC(=O)c2cc(S(=O)(=O)N3CCOCC3)c(Cl)cc2Cl)cc(OC)c1OC [Compound 3e, 2,4-dichloro-5-(morpholinosulfonyl)-N-(3,4,5-trimethoxyphenyl)benzamide]	poorly active	> 1000 nM	None	–	–
N#Cc1c(F)cc(NC(=O)c2cc(S(=O)(=O)N3CCOCC3)c(Cl)cc2Cl)cc1F [Compound 3h, 2,4-dichloro-N-(4-cyano-3,5-difluorophenyl)-5-(morpholinosulfonyl)benzamide]	–	190 ± 13.1 nM	None	–	–
COC(=O)c1c(F)cc(NC(=O)c2cc(S(=O)(=O)N3CCOCC3)c(Cl)cc2Cl)cc1F [Compound 3i, Methyl 4-(2,4-dichloro-5-(morpholinosulfonyl)benzamido)-2,6-difluorobenzoate]	–	864 ± 51.9 nM	None	–	–
O=C(Nc1cc(F)c(C(=O)O)c(F)c1)c1cc(S(=O)(=O)N2CCOCC2)c(Cl)cc1Cl [Compound 4, 4-(2,4-dichloro-5-(morpholinosulfonyl)benzamido)-2,6-difluorobenzoic Acid]	relatively inactive	> 1000 nM	None	–	–
O=C(Nc1cc(F)c(F)c(F)c1Br)c1cc(S(=O)(=O)N2CCOCC2)c(Cl)cc1Cl [Compound 5, N-(2-bromo-3,4,5-trifluorophenyl)-2,4-dichloro-5-(morpholinosulfonyl)benzamide]	strong ATX inhibition	–	–	seven fold	–
O=S(=O)(c1cc(-c2nc3cccc(F)c3o2)c(Cl)cc1Cl)N1CCOCC1 [Compound 7, 2-(2,4-dichloro-5-(morpholinosulfonyl)phenyl)-7-fluorobenzo[d]oxazole]	inactive	–	–	–	–
O=S(=O)(c1cc(-c2nc3cc(F)c(F)cc3[nH]2)c(Cl)cc1Cl)N1CCOCC1 [Compound 8, 4-((2,4-dichloro-5-(5,6-difluoro-1H-benzo[d]imidazol-2-yl)phenyl)sulfonyl)-morpholine]	inactive	–	–	–	–
CN(C(=O)c1cc(S(=O)(=O)N2CCOCC2)c(Cl)cc1Cl)c1cccc(F)c1 [Compound 9, 2,4-dichloro-N-(3-fluorophenyl)-N-methyl-5-(morpholinosulfonyl)benzamide]	low activity	–	–	–	–
O=S(=O)(c1cc(CNc2ccc(F)c(F)c2)c(Cl)cc1Cl)N1CCOCC1 [Compound 10, N-(2,4-dichloro-5-(morpholinosulfonyl)benzyl)-3,4-difluoroaniline]	greatly deteriorated	–	None	–	–
O=S(=O)(c1cc(CNc2cc(F)c(F)c(F)c2)c(Cl)cc1Cl)N1CCOCC1 [Compound 11, N-(2,4-dichloro-5-(morpholinosulfonyl)benzyl)-3,4,5-trifluoroaniline]	–	396 ± 44.1 nM	None	–	–
O=S(=O)(c1cc(C(=S)Nc2cccc(F)c2)c(Cl)cc1Cl)N1CCOCC1 [Compound 12, 2,4-dichloro-N-(3-fluorophenyl)-5-(morpholinosulfonyl)benzothioamide]	–	121.5 ± 1.02 nM	None	–	–
O=S(=O)(c1cc(C(=S)Nc2ccc(F)c(F)c2)c(Cl)cc1Cl)N1CCOCC1 [Compound 13, 2,4-dichloro-N-(3,4-difluorophenyl)-5-(morpholinosulfonyl)benzothioamide]	–	67.3 ± 9.73 nM	None	–	–
O=S(=O)(c1cc(C(=S)Nc2cc(F)c(F)c(F)c2)c(Cl)cc1Cl)N1CCOCC1 [Compound 14, 2,4-dichloro-5-(morpholinosulfonyl)-N-(3,4,5-trifluorophenyl)benzothioamide]	–	35.3 ± 2.66 nM	None	three fold	–
O=S(=O)(c1cc(C(=S)Nc2cc(Cl)c(F)c(Cl)c2)c(Cl)cc1Cl)N1CCOCC1 [Compound 15, 2,4-dichloro-N-(3,5-dichloro-4-fluorophenyl)-5-(morpholinosulfonyl)-benzothioamide]	–	83.1 ± 9.77 nM	None	–	–
O=S(=O)(Nc1cc(S(=O)(=O)N2CCOCC2)c(Cl)cc1Cl)c1cccc(F)c1 [Compound 19]	–	> 1000 nM	None	–	–
O=S(=O)(c1cc(N(S(=O)(=O)c2cccc(F)c2)S(=O)(=O)c2cccc(F)c2)c(Cl)cc1Cl)N1CCOCC1 [Compound 20]	–	> 1000 nM	None	–	–
O=S(=O)(Nc1cccc(F)c1)c1cc(S(=O)(=O)N2CCOCC2)c(Cl)cc1Cl [Compound 22, 2,4-dichloro-N-(3-fluorophenyl)-5-(morpholinosulfonyl)benzenesulfonamide]	–	> 1000 nM	None	–	–
O=S(=O)(Nc1cc(F)c(F)c(F)c1)c1cc(S(=O)(=O)N2CCOCC2)c(Cl)cc1Cl [Compound 23, 2,4-dichloro-5-(morpholinosulfonyl)-N-(3,4,5-trifluorophenyl)benzenesulfonamide]	–	> 1000 nM	None	–	–
O=C(Nc1cc(F)c(F)c(F)c1)c1cc(NN2CCOCC2)c(Cl)cc1Cl [Compound 25, 2,4-dichloro-5-(morpholinoamino)-N-(3,4,5-trifluorophenyl)benzamide]	inactive	> 1000 nM	None	–	–
CS(=O)(=O)N(C(=O)c1cc(NN2CCOCC2)c(Cl)cc1Cl)c1cc(F)c(F)c(F)c1 [Compound 26a, 2,4-dichloro-N-(methylsulfonyl)-5-(morpholinoamino)-N-(3,4,5-trifluorophenyl)-benzamide]	inactive	> 1000 nM	None	–	–
CN1CCN(S(=O)(=O)c2cc(C(=O)Nc3cc(F)c(F)c(F)c3)c(Cl)cc2Cl)CC1 [Compound 28a, 2,4-dichloro-5-((4-methylpiperazin-1-yl)sulfonyl)-N-(3,4,5-trifluorophenyl)-benzamide]	–	66 nM and 66.9 nM	None	–	–
CN1CCN(S(=O)(=O)c2cc(C(=O)Nc3cc(Cl)c(F)c(Cl)c3)c(Cl)cc2Cl)CC1 [Compound 28b, 2,4-dichloro-N-(3,5-dichloro-4-fluorophenyl)-5-((4-methylpiperazin-1-yl)sulfonyl)benzamide]	–	55 nM and 55.5 nM	None	–	–
CN1CCN(S(=O)(=O)c2cc(C(=S)Nc3cc(Cl)c(F)c(Cl)c3)c(Cl)cc2Cl)CC1 [Compound 29, 2,4-dichloro-N-(3,5-dichloro-4-fluorophenyl)-5-((4-methylpiperazin-1-yl)sulfonyl)-benzothioamide]	–	100 ± 8.11 nM	None	–	–
O=C(Nc1cccc(F)c1)c1cc(S(=O)(=O)N2CCOCC2)c(Cl)cc1Cl [Compound 918013, 2,4-dichloro-N-(3-fluorophenyl)-5-(morpholinosulfonyl)benzamide, reference compound]	–	117 ± 1.97 nM	None	–	Competitive
